Target: T1, human α1A adrenergic receptor (Homo sapiens, UniProt P35348)
T1 construct: host or cells: GeneBLAzer ADRA1A-NFAT-bla CHO-K1 cells
T1 sequence (P35348 1-466): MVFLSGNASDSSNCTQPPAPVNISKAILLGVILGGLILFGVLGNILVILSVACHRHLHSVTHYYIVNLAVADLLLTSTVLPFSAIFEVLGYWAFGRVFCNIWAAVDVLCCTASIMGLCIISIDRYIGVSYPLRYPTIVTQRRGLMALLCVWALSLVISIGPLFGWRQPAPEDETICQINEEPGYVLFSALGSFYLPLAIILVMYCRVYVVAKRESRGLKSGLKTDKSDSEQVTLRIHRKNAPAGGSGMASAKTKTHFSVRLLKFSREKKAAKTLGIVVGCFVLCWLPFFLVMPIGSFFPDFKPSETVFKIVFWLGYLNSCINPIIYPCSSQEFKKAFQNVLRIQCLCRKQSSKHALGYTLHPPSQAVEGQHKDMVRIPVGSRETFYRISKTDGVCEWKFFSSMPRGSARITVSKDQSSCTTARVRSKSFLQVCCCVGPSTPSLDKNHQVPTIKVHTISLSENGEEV
Experiment: Ca2+ mobilization assay in human α1A adrenergic receptor-expressing cells
Assay type: cell-based
Details: for Emax at 10 µM: % activation at 10 μmol/L test compound, 100 μmol/L norepinephrine = 100%, well without test compound = 0%; for EC50: CHO-K1 cells expressing human α1A adrenergic receptor, Fluo-4 fluorescence, concentration giving 50% response of Emax, 4-parameter logistic regression
Method: CHO-K1 cells that highly express a human α1A adrenergic receptor (GeneBLAzer™ ADRA1A-NFAT-bla CHO-K1 Cells) were purchased from Thermo Fisher Scientific, Inc., and cultured according to the instructions.
The cultured human α1A adrenergic receptor-expressing cells were washed with D-PBS, then replaced with a loading buffer (2 μmol/L Fluo-4/AM, 1× PowerLoad, 2.5 mmol/L Probenecid-containing DMEM (high-glucose)) and incubated at 37° C. for 60 minutes in a 5% CO2 incubator. The cells were detached using 0.05% trypsin-EDTA solution, and suspended in an assay buffer ([…], 0.054 mol/L KCl, 1.8 mmol/L CaCl2), 1 mmol/L MgSO4, 0.11 mol/L glucose, 0.01 mol/L NaH2PO4·2H2O, […], pH 7.3) to be 500,000 cells/mL.
Test compounds were dissolved in dimethylsulfoxide, and diluted with an assay buffer containing 0.3% BSA. The final concentrations of the test compounds were set to fall within the range of 0.1 nmol/L to 10 μmol/L. As a reference compound, norepinephrine was set to have a final concentration within the range of 0.01 nmol/L to 100 μmol/L.
On a 384-well clear bottom black plate coated with poly-D-lysine (Corning Inc.), the above-described cell-suspended solution was dispersed in 40 μL each (20,000 cells/well) and allowed to stand for 10 minutes. The plate was transferred to a fluorescent imaging plate reader (FDSS7000, Hamamatsu Photonics K.K.), and measurements were started. After 1 minute from the start of the measurements, 20 μL of the test compound solutions or norepinephrine solution (total amount: 60 μL/well) was added to each well of the plate (final concentration: 0.1% BSA, 0.1% dimethylsulfoxide), and the temporal change in fluorescence intensity of Fluo-4 was further measured for 5 minutes (Ex 480 nm/Em 540 nm).
The normalized values (% activation) were used for subsequent analyses.
Emax values and EC50 values were calculated by creating a concentration-response curve of the test compounds using a 4-parameter logistic regression with XLFit, Emax value being defined as % activation of test compound at the concentration of 10 μmol/L, and EC50 value being defined as the concentration in which 50% response of the Emax values is shown.

With CC(Nc1ccccc1-c1cccnc1)c1c[nH]cn1 (single isomer, unassigned; (+)) [Example 36, (+)-N-(1-(1H-Imidazol-4-yl)ethyl)-2-(pyridin-3-yl)aniline] the Emax at 10 µM was 86% and the EC50 was 3.7 nM.
For COc1cccc(-c2ccccc2NC(C)c2c[nH]cn2)n1 (single isomer, unassigned; (+)) [Example 39, (+)-N-(1-(1H-Imidazol-4-yl)ethyl)-2-(6-methoxypyridin-2-yl)aniline], the Emax at 10 µM was 94% and the EC50 was 1.9 nM.
With CC(Nc1ccccc1-c1cscn1)c1c[nH]cn1 (single isomer, unassigned; (+)) [Example 40, (+)-N-(1-(1H-Imidazol-4-yl)ethyl)-2-(thiazol-4-yl)aniline] the Emax at 10 µM was 111% and the EC50 was 0.6 nM.
CC(Oc1ccccc1-c1cccs1)c1c[nH]cn1 (single isomer, unassigned; (+)) [Example 79, (+)-4-(1-(2-(Thiophen-2-yl)phenoxy)ethyl)-1H-imidazole] was tested, and the Emax at 10 µM was 108% and the EC50 was 4.5 nM.
c1csc(-c2cscc2NCc2c[nH]cn2)c1 [Example 1] was tested, and the Emax at 10 µM was 103% and the EC50 was 0.8 nM.
c1csc(-c2sccc2NCc2c[nH]cn2)c1 [Example 2, N-((1H-imidazol-4-yl)methyl)-[2,2′-bithiophen]-3-amine] showed an Emax at 10 µM of 105% and an EC50 of 0.9 nM.
With c1cncc(-c2cscc2NCc2c[nH]cn2)c1 [Example 3, N-((1H-imidazol-4-yl)methyl)-4-(pyridin-3-yl)thiophen-3-amine] the Emax at 10 µM was 92% and the EC50 was 0.3 nM.
Work on COc1ccncc1-c1cscc1NCc1c[nH]cn1 [Example 4, N-((1H-imidazol-4-yl)methyl)-4-(4-methoxypyridin-3-yl)thiophen-3-amine] yielded an Emax at 10 µM of 93% and an EC50 of 0.6 nM.
With COc1cncc(-c2cscc2NCc2c[nH]cn2)c1 [Example 5, N-((1H-imidazol-4-yl)methyl)-4-(5-methoxypyridin-3-yl)thiophen-3-amine] the Emax at 10 µM was 98% and the EC50 was 0.3 nM.
Compound Fc1cncc(-c2cscc2NCc2c[nH]cn2)c1 [Example 6, N-((1H-imidazol-4-yl)methyl)-4-(5-fluoropyridin-3-yl)thiophen-3-amine] has an Emax at 10 µM of 92% and an EC50 of 1.1 nM.
Work on c1cncc(-c2sccc2NCc2c[nH]cn2)c1 [Example 7, N-((1H-imidazol-4-yl)methyl)-2-(pyridin-3-yl)thiophen-3-amine] yielded an Emax at 10 µM of 92% and an EC50 of 4.5 nM.
Work on c1cc(-c2cscc2NCc2c[nH]cn2)[nH]n1 [Example 8, N-((1H-imidazol-4-yl)methyl)-4-(1H-pyrazol-5-yl)thiophen-3-amine] yielded an Emax at 10 µM of 96% and an EC50 of 1.2 nM.
Compound c1cncc(-c2ccccc2NCc2c[nH]cn2)c1 [Example 9, N-((1H-imidazol-4-yl)methyl)-2-(pyridin-3-yl)aniline] has an Emax at 10 µM of 101% and an EC50 of 2.1 nM.
c1ccc(-c2cncnc2)c(NCc2c[nH]cn2)c1 [Example 10, N-((1H-imidazol-4-yl)methyl)-2-(pyrimidin-5-yl)aniline] showed an Emax at 10 µM of 103% and an EC50 of 3.8 nM.
For c1ccc(-c2cncs2)c(NCc2c[nH]cn2)c1 [Example 11, N-((1H-imidazol-4-yl)methyl)-2-(thiazol-5-yl)aniline], the Emax at 10 µM was 104% and the EC50 was 1.8 nM.
c1csc(-c2cscc2NCc2c[nH]cn2)n1 [Example 12, N-((1H-imidazol-4-yl)methyl)-4-(thiazol-2-yl)thiophen-3-amine] showed an Emax at 10 µM of 101% and an EC50 of 0.4 nM.
For c1cnc(-c2cscc2NCc2c[nH]cn2)cn1 [Example 13, N-((1H-imidazol-4-yl)methyl)-4-(pyrazin-2-yl)thiophen-3-amine], the Emax at 10 µM was 101% and the EC50 was 1.1 nM.
Compound c1nc(CNc2cscc2-c2cscn2)c[nH]1 [Example 14, N-((1H-imidazol-4-yl)methyl)-4-(thiazol-4-yl)thiophen-3-amine] has an Emax at 10 µM of 88% and an EC50 of 2.2 nM.
For c1ccc(-c2cscn2)c(NCc2c[nH]cn2)c1 [Example 15, N-((1H-imidazol-4-yl)methyl)-2-(thiazol-4-yl)aniline], the Emax at 10 µM was 98% and the EC50 was 0.1 nM.
Cc1cccnc1-c1cscc1NCc1c[nH]cn1 [Example 16, N-((1H-imidazol-4-yl)methyl)-4-(3-methylpyridin-2-yl)thiophen-3-amine] was tested, and the Emax at 10 µM was 88% and the EC50 was 9.6 nM.
COc1cccnc1-c1cscc1NCc1c[nH]cn1 [Example 17, N-((1H-imidazol-4-yl)methyl)-4-(3-methoxypyridin-2-yl)thiophen-3-amine] was tested, and the Emax at 10 µM was 90% and the EC50 was 2 nM.
Cc1ncsc1-c1cscc1NCc1c[nH]cn1 [Example 18, N-((1H-imidazol-4-yl)methyl)-4-(4-methylthiazol-5-yl)thiophen-3-amine] showed an Emax at 10 µM of 88% and an EC50 of 5.3 nM.
Compound Cc1ncncc1-c1ccccc1NCc1c[nH]cn1 [Example 19, N-((1H-imidazol-4-yl)methyl)-2-(4-methylpyrimidin-5-yl)aniline] has an Emax at 10 µM of 102% and an EC50 of 3.1 nM.
Cc1ccc(-c2cncnc2C)c(NCc2c[nH]cn2)c1 [Example 20, N-((1H-imidazol-4-yl)methyl)-5-methyl-2-(4-methylpyrimidin-5-yl)aniline] was tested, and the Emax at 10 µM was 91% and the EC50 was 2.4 nM.
Compound COc1ccnc(-c2cscc2NCc2c[nH]cn2)c1 [Example 21, N-((1H-imidazol-4-yl)methyl)-4-(4-methoxypyridin-2-yl)thiophen-3-amine] has an Emax at 10 µM of 92% and an EC50 of 0.2 nM.
With COc1cccc(-c2cscc2NCc2c[nH]cn2)n1 [Example 22, N-((1H-imidazol-4-yl)methyl)-4-(6-methoxypyridin-2-yl)thiophen-3-amine] the Emax at 10 µM was 88% and the EC50 was 1.2 nM.
COc1ncncc1-c1cscc1NCc1c[nH]cn1 [Example 23, N-((1H-imidazol-4-yl)methyl)-4-(4-methoxypyrimidin-5-yl)thiophen-3-amine] showed an Emax at 10 µM of 95% and an EC50 of 0.1 nM.
Compound Cc1scnc1-c1cscc1NCc1c[nH]cn1 [Example 24, N-((1H-imidazol-4-yl)methyl)-4-(5-methylthiazol-4-yl)thiophen-3-amine] has an Emax at 10 µM of 101% and an EC50 of 0.2 nM.
Cc1ncncc1-c1ccc(F)cc1NCc1c[nH]cn1 [Example 25, N-((1H-imidazol-4-yl)methyl)-5-fluoro-2-(4-methylpyrimidin-5-yl)aniline] was tested, and the Emax at 10 µM was 100% and the EC50 was 1.7 nM.
c1ccc(-c2cnccn2)c(NCc2c[nH]cn2)c1 [Example 26, N-((1H-imidazol-4-yl)methyl)-2-(pyrazin-2-yl)aniline] was tested, and the Emax at 10 µM was 105% and the EC50 was 1.2 nM.
c1ccc(-c2ccccc2NCc2c[nH]cn2)nc1 [Example 27, N-((1H-imidazol-4-yl)methyl)-2-(pyridin-2-yl)aniline] was tested, and the Emax at 10 µM was 100% and the EC50 was 2.3 nM.
Compound COc1cccnc1-c1ccccc1NCc1c[nH]cn1 [Example 28, N-((1H-imidazol-4-yl)methyl)-2-(3-methoxypyridin-2-yl)aniline] has an Emax at 10 µM of 96% and an EC50 of 4.9 nM.
Fc1cccnc1-c1cscc1NCc1c[nH]cn1 [Example 29, N-((1H-imidazol-4-yl)methyl)-4-(3-fluoropyridin-2-yl)thiophen-3-amine] showed an Emax at 10 µM of 96% and an EC50 of 2.3 nM.
Compound c1ccc(-c2cscc2NCc2c[nH]cn2)nc1 [Example 30, N-((1H-imidazol-4-yl)methyl)-4-(pyridin-2-yl)thiophen-3-amine] has an Emax at 10 µM of 97% and an EC50 of 0.7 nM.
COc1cncc(-c2cscc2NCc2c[nH]cn2)n1 [Example 31, N-((1H-imidazol-4-yl)methyl)-4-(6-methoxypyrazin-2-yl)thiophen-3-amine] gave an Emax at 10 µM of 103% and an EC50 of 0.8 nM.

From patent publication US20260132126A1, “IMIDAZOLE DERIVATIVES” (SANWA KAGAKU KENKYUSHO CO., LTD., priority 2022, published 2026)
